Columns and labels:
Assay in all cases: Weeding effect in post-emergence stage
Assay type in all cases: in vivo
Conditions in all cases: level of fresh weight growth control rate
Echinochloa crusgalli = tested on: Echinochloa crusgalli
In short: (§1)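 Post-emergence spray tower; 2-3 leaf plants (2 wk after sowing, soil pots, greenhouse). Formulation: acetone, Tween 80, methyl oleate EC 1.5 liter/ha as synergist, water. Rates 500–7.5 g/ha. Growth control rate read at 3 wk; n=3, averaged.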

Alopecurus japonicus = tested on: Alopecurus japonicus
In short: as §1

Digitaria sanguinalis = tested on: Digitaria sanguinalis
In short: as §1

Eleusine indica = tested on: Eleusine indica
In short: as §1

Abutilon theophrasti = tested on: Abutilon theophrasti
In short: as §1

Setaria viridis = tested on: Setaria viridis
In short: as §1

Compound	Weeding effect in post-emergence stage, Echinochloa crusgalli (Echinochloa crusgalli; Dose 15 g/ha)	Weeding effect in post-emergence stage, Alopecurus japonicus (Alopecurus japonicus; Dose 15 g/ha)	Weeding effect in post-emergence stage, Digitaria sanguinalis (Digitaria sanguinalis; Dose 15 g/ha)	Weeding effect in post-emergence stage, Eleusine indica (Eleusine indica; Dose 15 g/ha)	Weeding effect in post-emergence stage, Abutilon theophrasti (Abutilon theophrasti; Dose 15 g/ha)	Weeding effect in post-emergence stage, Setaria viridis (Setaria viridis; Dose 15 g/ha)	also measured
COC(=O)C(OC)OC(=O)C(C)O/N=C/c1cc(-n2c(=O)cc(C(F)(F)F)n(C)c2=O)c(F)cc1Cl (stereo not drawn) [Compound 245]	–	–	–	–	–	–	Weeding effect in post-emergence stage, Echinochloa crusgalli (Echinochloa crusgalli; Dose 30 g/ha): 5 (Level 5: growth control rate is above 85%); Weeding effect in post-emergence stage, Alopecurus japonicus (Alopecurus japonicus; Dose 30 g/ha): 5 (Level 5: growth control rate is above 85%); Weeding effect in post-emergence stage, Digitaria sanguinalis (Digitaria sanguinalis; Dose 30 g/ha): 5 (Level 5: growth control rate is above 85%); Weeding effect in post-emergence stage, Eleusine indica (Eleusine indica; Dose 30 g/ha): 5 (Level 5: growth control rate is above 85%); Weeding effect in post-emergence stage, Abutilon theophrasti (Abutilon theophrasti; Dose 30 g/ha): 5 (Level 5: growth control rate is above 85%); Weeding effect in post-emergence stage, Setaria viridis (Setaria viridis; Dose 30 g/ha): 5 (Level 5: growth control rate is above 85%)
CCOC(=O)OC(C)OC(=O)C(C)O/N=C/c1cc(-n2c(=O)cc(C(F)(F)F)n(C)c2=O)c(F)cc1Cl (stereo not drawn) [Compound 246]	5 (Level 5: growth control rate is above 85%)	5 (Level 5: growth control rate is above 85%)	5 (Level 5: growth control rate is above 85%)	5 (Level 5: growth control rate is above 85%)	5 (Level 5: growth control rate is above 85%)	5 (Level 5: growth control rate is above 85%)	–
CC(C)=NOC(=O)C(C)O/N=C/c1cc(-n2c(=O)cc(C(F)(F)F)n(C)c2=O)c(F)cc1Cl (stereo not drawn) [Compound 248]	5 (Level 5: growth control rate is above 85%)	5 (Level 5: growth control rate is above 85%)	5 (Level 5: growth control rate is above 85%)	5 (Level 5: growth control rate is above 85%)	5 (Level 5: growth control rate is above 85%)	5 (Level 5: growth control rate is above 85%)	–
CC/C(C)=N/OC(=O)C(C)O/N=C/c1cc(-n2c(=O)cc(C(F)(F)F)n(C)c2=O)c(F)cc1Cl (stereo not drawn) [Compound 249]	5 (Level 5: growth control rate is above 85%)	5 (Level 5: growth control rate is above 85%)	5 (Level 5: growth control rate is above 85%)	5 (Level 5: growth control rate is above 85%)	5 (Level 5: growth control rate is above 85%)	5 (Level 5: growth control rate is above 85%)	–
C/C(=N\OC(=O)C(C)O/N=C/c1cc(-n2c(=O)cc(C(F)(F)F)n(C)c2=O)c(F)cc1Cl)C(C)C (stereo not drawn) [Compound 250]	5 (Level 5: growth control rate is above 85%)	5 (Level 5: growth control rate is above 85%)	5 (Level 5: growth control rate is above 85%)	5 (Level 5: growth control rate is above 85%)	5 (Level 5: growth control rate is above 85%)	5 (Level 5: growth control rate is above 85%)	–
CCC(CC)=NOC(=O)C(C)O/N=C/c1cc(-n2c(=O)cc(C(F)(F)F)n(C)c2=O)c(F)cc1Cl (stereo not drawn) [Compound 251]	5 (Level 5: growth control rate is above 85%)	5 (Level 5: growth control rate is above 85%)	5 (Level 5: growth control rate is above 85%)	5 (Level 5: growth control rate is above 85%)	5 (Level 5: growth control rate is above 85%)	5 (Level 5: growth control rate is above 85%)	–
CCO/C(C)=N/OC(=O)C(C)O/N=C/c1cc(-n2c(=O)cc(C(F)(F)F)n(C)c2=O)c(F)cc1Cl (stereo not drawn) [Compound 252]	5 (Level 5: growth control rate is above 85%)	5 (Level 5: growth control rate is above 85%)	5 (Level 5: growth control rate is above 85%)	5 (Level 5: growth control rate is above 85%)	5 (Level 5: growth control rate is above 85%)	5 (Level 5: growth control rate is above 85%)	–
COC/C(C)=N/OC(=O)C(C)O/N=C/c1cc(-n2c(=O)cc(C(F)(F)F)n(C)c2=O)c(F)cc1Cl (stereo not drawn) [Compound 253]	5 (Level 5: growth control rate is above 85%)	5 (Level 5: growth control rate is above 85%)	5 (Level 5: growth control rate is above 85%)	5 (Level 5: growth control rate is above 85%)	5 (Level 5: growth control rate is above 85%)	5 (Level 5: growth control rate is above 85%)	–
CCOC(=O)/C(C)=N/OC(=O)C(C)O/N=C/c1cc(-n2c(=O)cc(C(F)(F)F)n(C)c2=O)c(F)cc1Cl (stereo not drawn) [Compound 254]	5 (Level 5: growth control rate is above 85%)	5 (Level 5: growth control rate is above 85%)	5 (Level 5: growth control rate is above 85%)	5 (Level 5: growth control rate is above 85%)	5 (Level 5: growth control rate is above 85%)	5 (Level 5: growth control rate is above 85%)	–
CC(O/N=C/c1cc(-n2c(=O)cc(C(F)(F)F)n(C)c2=O)c(F)cc1Cl)C(=O)O/N=C/c1ccccc1 (stereo not drawn) [Compound 255]	–	–	–	–	–	–	Weeding effect in post-emergence stage, Echinochloa crusgalli (Echinochloa crusgalli; Dose 30 g/ha): 5 (Level 5: growth control rate is above 85%); Weeding effect in post-emergence stage, Alopecurus japonicus (Alopecurus japonicus; Dose 30 g/ha): 5 (Level 5: growth control rate is above 85%); Weeding effect in post-emergence stage, Digitaria sanguinalis (Digitaria sanguinalis; Dose 30 g/ha): 5 (Level 5: growth control rate is above 85%); Weeding effect in post-emergence stage, Eleusine indica (Eleusine indica; Dose 30 g/ha): 5 (Level 5: growth control rate is above 85%); Weeding effect in post-emergence stage, Abutilon theophrasti (Abutilon theophrasti; Dose 30 g/ha): 5 (Level 5: growth control rate is above 85%); Weeding effect in post-emergence stage, Setaria viridis (Setaria viridis; Dose 30 g/ha): 5 (Level 5: growth control rate is above 85%)
CC(O/N=C/c1cc(-n2c(=O)cc(C(F)(F)F)n(C)c2=O)c(F)cc1Cl)C(=O)ON=C1CCCC1 (stereo not drawn) [Compound 258]	5 (Level 5: growth control rate is above 85%)	4 (Level 4: growth control rate is greater than or equal to 60% and less than 85%)	5 (Level 5: growth control rate is above 85%)	5 (Level 5: growth control rate is above 85%)	5 (Level 5: growth control rate is above 85%)	5 (Level 5: growth control rate is above 85%)	–
CC(C)=NOCCOC(=O)C(C)O/N=C/c1cc(-n2c(=O)cc(C(F)(F)F)n(C)c2=O)c(F)cc1Cl (stereo not drawn) [Compound 259]	–	–	–	–	–	–	Weeding effect in post-emergence stage, Echinochloa crusgalli (Echinochloa crusgalli; Dose 30 g/ha): 5 (Level 5: growth control rate is above 85%); Weeding effect in post-emergence stage, Alopecurus japonicus (Alopecurus japonicus; Dose 30 g/ha): 5 (Level 5: growth control rate is above 85%); Weeding effect in post-emergence stage, Digitaria sanguinalis (Digitaria sanguinalis; Dose 30 g/ha): 5 (Level 5: growth control rate is above 85%); Weeding effect in post-emergence stage, Eleusine indica (Eleusine indica; Dose 30 g/ha): 5 (Level 5: growth control rate is above 85%); Weeding effect in post-emergence stage, Abutilon theophrasti (Abutilon theophrasti; Dose 30 g/ha): 5 (Level 5: growth control rate is above 85%); Weeding effect in post-emergence stage, Setaria viridis (Setaria viridis; Dose 30 g/ha): 5 (Level 5: growth control rate is above 85%)
CC(O/N=C/c1cc(-n2c(=O)cc(C(F)(F)F)n(C)c2=O)c(F)cc1Cl)C(=O)Oc1ccccc1 (stereo not drawn) [Compound 262]	5 (Level 5: growth control rate is above 85%)	5 (Level 5: growth control rate is above 85%)	5 (Level 5: growth control rate is above 85%)	5 (Level 5: growth control rate is above 85%)	5 (Level 5: growth control rate is above 85%)	5 (Level 5: growth control rate is above 85%)	–
CC(O/N=C/c1cc(-n2c(=O)cc(C(F)(F)F)n(C)c2=O)c(F)cc1Cl)C(=O)ON1C(=O)CCC1=O (stereo not drawn) [Compound 263]	–	–	–	–	–	–	Weeding effect in post-emergence stage, Echinochloa crusgalli (Echinochloa crusgalli; Dose 60 g/ha): 5 (Level 5: growth control rate is above 85%); Weeding effect in post-emergence stage, Alopecurus japonicus (Alopecurus japonicus; Dose 60 g/ha): 5 (Level 5: growth control rate is above 85%); Weeding effect in post-emergence stage, Digitaria sanguinalis (Digitaria sanguinalis; Dose 60 g/ha): 5 (Level 5: growth control rate is above 85%); Weeding effect in post-emergence stage, Eleusine indica (Eleusine indica; Dose 60 g/ha): 5 (Level 5: growth control rate is above 85%); Weeding effect in post-emergence stage, Abutilon theophrasti (Abutilon theophrasti; Dose 60 g/ha): 5 (Level 5: growth control rate is above 85%); Weeding effect in post-emergence stage, Setaria viridis (Setaria viridis; Dose 60 g/ha): 5 (Level 5: growth control rate is above 85%)
CC(O/N=C/c1cc(-n2c(=O)cc(C(F)(F)F)n(C)c2=O)c(F)cc1Cl)C(=O)OCC1CCCO1 (stereo not drawn) [Compound 264]	5 (Level 5: growth control rate is above 85%)	5 (Level 5: growth control rate is above 85%)	5 (Level 5: growth control rate is above 85%)	5 (Level 5: growth control rate is above 85%)	5 (Level 5: growth control rate is above 85%)	5 (Level 5: growth control rate is above 85%)	–

From US20230111310A1, “CARBOXYLIC ACID DERIVATIVE-SUBSTITUTED IMINO ARYL COMPOUND, PREPARATION METHOD THEREFOR, HERBICIDAL COMPOSITION AND USE THEREOF” (Qingdao Kingagroot Chemical Compound Co., Ltd., priority 2020, published 2023)
